# Source: PubChem BioAssay AID1259407 (Chemical Carcinogenesis Research Information System (CCRIS), 2018)
# The source made the active and inactive calls. The rule behind the calls is not given here.
# Test system: CCRIS mutagenicity, Ames/micronucleus/aberration tests
# Assay: CCRIS mutagenicity studies
# [1] = Test System: AMES SALMONELLA TYPHIMURIUM, Strain/Indicator: TA98, Metabolic Activation: NONE, Method: STANDARD PLATE
# [2] = Test System: AMES SALMONELLA TYPHIMURIUM, Strain/Indicator: TA100, Metabolic Activation: NONE, Method: STANDARD PLATE
# [3] = Test System: AMES SALMONELLA TYPHIMURIUM, Strain/Indicator: TA100, Metabolic Activation: NONE, Method: PREINCUBATION
# [4] = Test System: AMES SALMONELLA TYPHIMURIUM, Strain/Indicator: TA1535, Metabolic Activation: NONE, Method: STANDARD PLATE
compound,measurement,setting,value
CC(=O)N(C)c1ccc(N=Nc2ccc(N(C)C(C)=O)cc2)cc1,mutagenic call,"Test System: AMES SALMONELLA TYPHIMURIUM, Strain/Indicator: TA98, Metabolic Activation: RAT, LIVER, S-9, POLYCHLORINATED BIPHENYLS, Method: PREINCUBATION",inactive; negative
same,mutagenic call,"Test System: AMES SALMONELLA TYPHIMURIUM, Strain/Indicator: TA100, Metabolic Activation: RAT, LIVER, S-9, POLYCHLORINATED BIPHENYLS, Method: PREINCUBATION",inactive; negative
Cc1ccc([N+](=O)[O-])cc1N=[N+]([O-])c1cc([N+](=O)[O-])ccc1C,mutagenic call,"Test System: AMES SALMONELLA TYPHIMURIUM, Strain/Indicator: TA98, Metabolic Activation: NONE, Method: SUSPENSION/PLATE",inactive; negative
same,mutagenic call,"Test System: AMES SALMONELLA TYPHIMURIUM, Strain/Indicator: TA98, Metabolic Activation: RAT, LIVER, S-9, PHENOBARBITAL AND 5,6-BENZOFLAVONE, Method: SUSPENSION/PLATE",inactive; negative
same,mutagenic call,"Test System: AMES SALMONELLA TYPHIMURIUM, Strain/Indicator: TA100, Metabolic Activation: NONE, Method: SUSPENSION/PLATE",inactive; negative
same,mutagenic call,"Test System: AMES SALMONELLA TYPHIMURIUM, Strain/Indicator: TA100, Metabolic Activation: RAT, LIVER, S-9, PHENOBARBITAL AND 5,6-BENZOFLAVONE, Method: SUSPENSION/PLATE",inactive; negative
c1ccc2c(c1)Cc1ccccc1-2,mutagenic call,"End Point: IN VITRO CHROMOSOMAL ABERRATIONS, Test System: CHINESE HAMSTER LUNG (CHL) CELLS, Metabolic Activation: NONE",inactive; negative
same,mutagenic call,"End Point: IN VITRO CHROMOSOMAL ABERRATIONS, Test System: CHINESE HAMSTER LUNG (CHL) CELLS, Metabolic Activation: RAT, LIVER, S-9, KC-400",active; positive
same,mutagenic call,"End Point: IN VITRO MICRONUCLEUS, Test System: CHO CELLS, Metabolic Activation: RAT, LIVER, S-9, AROCLOR 1254",inactive; negative
same,mutagenic call,"Test System: AMES SALMONELLA TYPHIMURIUM, Strain/Indicator: TA97, Metabolic Activation: NONE, Method: STANDARD PLATE",inactive; negative
same,mutagenic call,"Test System: AMES SALMONELLA TYPHIMURIUM, Strain/Indicator: TA97, Metabolic Activation: RAT, LIVER, S-9, PCB, Method: STANDARD PLATE",inactive; negative
same,mutagenic call,[1],inactive; negative
same,mutagenic call,"Test System: AMES SALMONELLA TYPHIMURIUM, Strain/Indicator: TA98, Metabolic Activation: RAT, LIVER, S-9, PCB, Method: STANDARD PLATE",inactive; negative
same,mutagenic call,[2],inactive; negative
same,mutagenic call,"Test System: AMES SALMONELLA TYPHIMURIUM, Strain/Indicator: TA100, Metabolic Activation: RAT, LIVER, S-9, PCB, Method: STANDARD PLATE",inactive; negative
same,mutagenic call,"Test System: MOUSE LYMPHOMA, Strain/Indicator: L5178Y (TK+/TK-), Metabolic Activation: NONE, Method: SUSPENSION/PLATE",active; positive
same,mutagenic call,"Test System: MOUSE LYMPHOMA, Strain/Indicator: L5178Y (TK+/TK-), Metabolic Activation: RAT, LIVER, S-9, AROCLOR 1254, Method: SUSPENSION/PLATE",active; positive
same,mutagenic call,"Test System: UDS RAT HEPATOCYTES, Strain/Indicator: BROMODEOXYURIDINE INCORP, Metabolic Activation: NONE, Method: FLOW CYTOMETRIC ANALYSIS",inactive; negative
O=C1C=CC(=C(Cl)Cl)O1,mutagenic call,[2],active; positive
O=[N+]([O-])c1cccc(CO/N=C/c2nc3cc([N+](=O)[O-])ccc3n2Cc2ccc(F)cc2)c1,mutagenic call,[1],inactive; negative
same,mutagenic call,"Test System: AMES SALMONELLA TYPHIMURIUM, Strain/Indicator: TA98, Metabolic Activation: RAT, LIVER, S-9, PHENOBARBITAL AND BETA-NAPHTHOFLAVONE, Method: STANDARD PLATE",inactive; negative
same,mutagenic call,[2],inactive; negative
same,mutagenic call,"Test System: AMES SALMONELLA TYPHIMURIUM, Strain/Indicator: TA100, Metabolic Activation: RAT, LIVER, S-9, PHENOBARBITAL AND BETA-NAPHTHOFLAVONE, Method: STANDARD PLATE",inactive; negative
Nc1ccc2c(c1)-c1ccccc1C2,mutagenic call,"Test System: AMES SALMONELLA TYPHIMURIUM, Strain/Indicator: TA98, Metabolic Activation: RAT, LIVER, S-9, AROCLOR 1254 (2 OR 4%), Method: STANDARD PLATE",active; positive
same,mutagenic call,"Test System: AMES SALMONELLA TYPHIMURIUM, Strain/Indicator: TA100, Metabolic Activation: RAT, LIVER, S-9, AROCLOR 1254 (4%), Method: STANDARD PLATE",active; positive
same,mutagenic call,"Test System: AMES SALMONELLA TYPHIMURIUM, Strain/Indicator: TA1535, Metabolic Activation: RAT, LIVER, S-9, AROCLOR 1254 (4%), Method: STANDARD PLATE",inactive; negative
same,mutagenic call,"Test System: AMES SALMONELLA TYPHIMURIUM, Strain/Indicator: TA1537, Metabolic Activation: RAT, LIVER, S-9, AROCLOR 1254 (4%), Method: STANDARD PLATE",active; positive
N#CC1=C(C#N)C(=O)C(Cl)=C(Cl)C1=O,mutagenic call,"Test System: AMES SALMONELLA TYPHIMURIUM, Strain/Indicator: TA98, Metabolic Activation: NONE, Method: PREINCUBATION",inactive; negative
same,mutagenic call,"Test System: AMES SALMONELLA TYPHIMURIUM, Strain/Indicator: TA98, Metabolic Activation: RAT, LIVER, S-9, PHENOBARBITAL AND 5,6-BENZOFLAVONE, Method: PREINCUBATION",inactive; negative
same,mutagenic call,[3],inactive; negative
same,mutagenic call,"Test System: AMES SALMONELLA TYPHIMURIUM, Strain/Indicator: TA102, Metabolic Activation: NONE, Method: PREINCUBATION",inactive; negative
same,mutagenic call,"Test System: AMES SALMONELLA TYPHIMURIUM, Strain/Indicator: TA102, Metabolic Activation: RAT, LIVER, S-9, PHENOBARBITAL AND 5,6-BENZOFLAVONE, Method: PREINCUBATION",inactive; negative
same,mutagenic call,"Test System: AMES SALMONELLA TYPHIMURIUM, Strain/Indicator: TA104, Metabolic Activation: NONE, Method: PREINCUBATION",active; positive
same,mutagenic call,"Test System: AMES SALMONELLA TYPHIMURIUM, Strain/Indicator: TA104, Metabolic Activation: RAT, LIVER, S-9, PHENOBARBITAL AND 5,6-BENZOFLAVONE, Method: PREINCUBATION",active; positive
same,mutagenic call,"Test System: AMES SALMONELLA TYPHIMURIUM, Strain/Indicator: TA2637, Metabolic Activation: NONE, Method: PREINCUBATION",inactive; negative
same,mutagenic call,"Test System: AMES SALMONELLA TYPHIMURIUM, Strain/Indicator: TA2637, Metabolic Activation: RAT, LIVER, S-9, PHENOBARBITAL AND 5,6-BENZOFLAVONE, Method: PREINCUBATION",active; positive
O=C(O)/C=C/c1ccc(Cl)cc1,mutagenic call,[3],inactive; negative
same,mutagenic call,"Test System: AMES SALMONELLA TYPHIMURIUM, Strain/Indicator: TA100, Metabolic Activation: RAT, LIVER, S-9, AROCLOR 1254, Method: PREINCUBATION",inactive; negative
Nc1ccccc1O,mutagenic call,"Test System: AMES SALMONELLA TYPHIMURIUM, Strain/Indicator: TA98, Metabolic Activation: NONE",inactive; negative
same,mutagenic call,"Test System: AMES SALMONELLA TYPHIMURIUM, Strain/Indicator: TA98, Metabolic Activation: S-9",inactive; negative
C=CCCCCC1CO1 (configuration not stated),mutagenic call,[2],inactive; negative
same,mutagenic call,[4],active; positive
Cc1cc(O)c2c(O)c3c(O)cccc3cc2c1,mutagenic call,[1],inactive; negative
same,mutagenic call,"Test System: AMES SALMONELLA TYPHIMURIUM, Strain/Indicator: TA98, Metabolic Activation: RAT, LIVER, S-9, AROCLOR 1254, Method: STANDARD PLATE",inactive; negative
same,mutagenic call,[2],inactive; negative
same,mutagenic call,"Test System: AMES SALMONELLA TYPHIMURIUM, Strain/Indicator: TA100, Metabolic Activation: RAT, LIVER, S-9, AROCLOR 1254, Method: STANDARD PLATE",inactive; negative
same,mutagenic call,[4],inactive; negative
same,mutagenic call,"Test System: AMES SALMONELLA TYPHIMURIUM, Strain/Indicator: TA1535, Metabolic Activation: RAT, LIVER, S-9, AROCLOR 1254, Method: STANDARD PLATE",inactive; negative
same,mutagenic call,"Test System: AMES SALMONELLA TYPHIMURIUM, Strain/Indicator: TA1537, Metabolic Activation: RAT, LIVER, S-9, AROCLOR 1254, Method: STANDARD PLATE",active; positive
same,mutagenic call,"Test System: AMES SALMONELLA TYPHIMURIUM, Strain/Indicator: TA1538, Metabolic Activation: NONE, Method: STANDARD PLATE",inactive; negative
same,mutagenic call,"Test System: AMES SALMONELLA TYPHIMURIUM, Strain/Indicator: TA1538, Metabolic Activation: RAT, LIVER, S-9, AROCLOR 1254, Method: STANDARD PLATE",inactive; negative
Fc1ccc(CCl)cc1,mutagenic call,[2],inactive; negative
